Entries after “also recorded” stand apart in the source; their conditions may differ.
How the values were obtained:
[1] = system: 27-month-old C57BL/6 mice; assay: Activity monitoring wheel test (voluntary running wheel activity) in aged mice; type: in vivo, mouse; settings: 27-month-old mice; 0.3 mg/dose PO once daily for 35 days
Procedure: (§1) In this study, aged mice were treated with BGE-117 daily for 35 days. Daily voluntary running wheel activity levels, as well as hemoglobin levels at Days 0 and 14, were measured. The effects of the BGE-117 compound were examined for the reversal of frailty in mice.
The animals were housed with access to voluntary running wheels that wirelessly transmit running data to a computer for analysis. The outcome of interest was the median number of daily wheel rotations generated by mice in each group (n=9 per group), and this is shown as the dots in FIG. 6 (one median number of rotations per day per group) and also as the numbers on the right. […]
The first day of the study (Study Day 1) started with Animal Acclimation, followed by the BGE-117 treatment start date on Study Day 33 (Phase Day 1). […] For the frailty portion of the study, mice were assessed using an activity monitoring wheel which was monitored passively with a computer monitoring system. […]
The activity monitoring wheel is a running disk that monitors rotations. […] Activity was monitored passively and wirelessly with a computer monitoring system. Running wheel activity levels were monitored daily. […]
The wheels were electronically monitored and the number of rotations of the wheel per minute was recorded continuously throughout the entire study.

aged C57BL/6 mice = assay: Hemoglobin levels in aged mice (Hb assay kit ab234046); type: in vivo, mouse; settings: for Hemoglobin concentration vs vehicle control (FIG. 4B): after 14 days of treatment; for Hemoglobin levels in aged mice, Mean: 27-month-old mice
Procedure: as §1
The BGE-117 compound for the TA-1 treatment group was formulated in 0.5% carboxymethylcellulose (CMC) and 0.5% Tween 80 and constituted at a concentration of 1 mg/ml. The test article for the Control group included 0.5% CMC and 0.5% Tween 80, acting as a vehicle control. Mice were treated with BGE-117 at a concentration of 1 mg/ml at a volume of 300 μl/mouse (0.3 ml/mouse), for 0.3 mg/dose (TA-1); control group mice (TA-2) were administered a vehicle control at a dose volume of 0.3 ml/mouse. Administration was oral, once per day.
Using a 4 mm lancet, approximately 150 microliters of whole blood was collected from the submental vein, utilizing the submandibular vein as back-up. Blood was collected using 500 microliter Serum Separator tubes and stored at room temperature for 45 minutes or until clotted. Blood was centrifuged at 4000 RPM for 10 minutes in at 4° C. If the serum was not analyzed immediately, the serum was apportioned into 0.5 ml aliquots, stored, and transported at −80° C.
The following procedure was performed for the hemoglobin assay: • 1. Mouse blood was collected in Li-heparin tubes. • 2. Blood was briefly vortexed and 2 μl of whole blood was transferred into a 96-well clear plate containing 18 μl of distilled water. • 3. 160 μl sample buffer was added to the 96-well clear plate from the Hemoglobin Assay Kit (ab234046). • 4. 20 μl 1N NaOH was added to blood samples to the diluted sample in each well. • 5. The standard curve was established with included hemoglobin standard (ab234046) as per the manufacturer's instruction. • 6. The reaction was incubated at room temperature for 8-15 minutes. Read absorbance at 575 nm in end point mode. • 7. Hb concentration was calculated as recommended by the assay kit.

[2] = system: 23-month-old and 27-month old C57BL/6 mice with anemia of inflammation; assay: Hemoglobin in aged mice with anemia of inflammation (elevated TNFα and/or IL-6), BGE-117 study; type: in vivo, mouse; settings: 10 mg/kg PO once daily
Procedure: The study included 23-month-old mice (n=39) (23-months old at the start of the experiment, and 24 months old at the end since the experiment lasted 35 days) and 27-month old mice (n=14) (27-months old at the start of the experiment, and 28 months old at the end since the experiment lasted 35 days) from strain C57BL/6 that were administered BGE-117 or vehicle once daily for a duration of […].
Once the 23 month old mice developed anemia of inflammation at 23-months (±2 weeks), mice were randomly divided into two groups: Anemia of inflammation vehicle-treated Control group 1 (“23-month Control Group” (CG1)) (n=18) and Anemia of inflammation BGE-117-treated group (“BGE-117 23-month Test Group” (BGE-117 TG1)) (n=21), while ensuring that the mean hemoglobin levels and inflammatory cytokine levels remained balanced among the groups.
Once the 27-month old mice developed anemia of inflammation at 27-months (±2 weeks), mice were randomly divided into two groups: Anemia of inflammation vehicle-treated Control group (“27-month Control Group” (CG2)) (n=8), Anemia of inflammation BGE-117-treated group (“BGE-117 27-month Test Group” (BGE-117 TG2)) (n=6), while ensuring that the mean hemoglobin levels remained balanced among the groups. The mice in the two “Anemia of inflammation” pre-treatment (baseline) groups had high (130% or higher of the median values) TNFα and/or IL-6 as indicated in FIGS. 11-12.
The 23-month old and 27-month old Test Groups BGE-117 TG1 and BGE-117 TG2 were administered 10 mg/kg of BGE-117 once daily for 5 weeks by oral gavage in 0.5% carboxymethylcellulose (CMC) and 0.5% Tween 80. The 23-month old and 27-month old Control Groups CG1 and CG2 were administered vehicle of 0.5% carboxymethylcellulose (CMC) and 0.5% Tween 80 by oral gavage on the same schedule.
Blood was collected from the submandibular vein at the start of the study immediately before drug administration, and after 14 days of drug administration. The blood samples was mixed with EDTA and analyzed using the Hemoglobin assay kit from Abcam (ab234046) with modification. The signal was read on Molecular Device SpectraMax 340PC-384. The inflammatory markers were measured by Luminex Mouse Magnetic Assay (5-PLEX, LXSAMSM-05 by R&D Systems) on Luminex 200. At day 35 post drug initiation the mice were anesthetized with isoflurane and blood samples were collected from abdominal vein.

[3] = system: patients over 65 years of age with UAA; assay: Phase 2a, 12-week, randomized, double-blind, placebo-controlled study in Unexplained Anemia of Aging (UAA); type: in vivo, human; settings: elderly UAA subjects; 4-24 mg once daily, 12 weeks
Description: Study Title: A Phase 2a, 12-Week, Randomized, Double-Blind, Placebo-Controlled, Multi-Center Study to Evaluate Efficacy and Safety of BGE-117 in the Treatment of Unexplained Anemia of Aging (UAA)
This is a Phase II, randomized, double-blind, placebo-controlled multi-center study to compare the safety of BGE-117 when administered in patients over 65 years of age for 12 weeks. The study consists of 3 periods: Screening, Treatment, and Follow-up. FIG. 16 provides a summary of the study design.
The study size for this study is 160 evaluable subjects (80 subjects randomized to BGE-117 and 80 subjects randomized to placebo). The subject's maximum duration of participation is approximately 154 days. This includes 6 weeks for the Screening Period, 12 weeks for the Treatment Period, and 4 weeks for the Follow-up Period.
Subjects are advised to take IP with water once a day, recommended that the subject take the study medication 1 hour before their morning meal, starting on Visit 3 (Day 1), for 84 consecutive days, through Visit 15 (Day 85). Capsules are taken whole, not crushed, chewed, or cut.
This study is a double-blind, placebo-controlled study. Subjects are randomized to receive either of the following: • BGE-117: a hypoxia inducible factor-prolyl hydroxylase (HIF-PHD) inhibitor in 4 mg and 12 mg capsules; or • Placebo: matching capsule without active drug • The starting dose and maximum dose for BGE-117/placebo is based on a subject's screening renal function results: • The starting dose for subjects with an estimated glomerular filtration rate (eGFR) ≥60 mL/min/1.73 m2 is 12 mg/placebo. The maximum dose is 24 mg/placebo. • The starting dose for subjects with an eGFR between ≥30 and <60 mL/min/1.73 m^2is 4 mg/placebo. The maximum dose is 16 mg/placebo.
From Visits 5 through 11 (Days 15 through 57), dose adjustment opportunities are scheduled approximately every 14 days to achieve and maintain Hb within the target range. Dose adjustments are based on the local laboratory's results, with the goal of titrating Hb levels to a range of ≥12.0 to ≤13.0 g/dL. In the event of excessively rapid Hb increases or unacceptably high Hb levels or trends, in the investigator's opinion, the dose may be adjusted at any time, even on visits without a dose adjustment review.
• Improvement in Hb at Visit 15 (Day 85/EOTP) compared to baseline
• Improvement in FACIT-Fatigue Score at Visit 15 (Day 85/EOTP) compared to baseline
• Change in Hb at Visits 7, and 11 (Days 29, and 57) and Follow-up Visit compared to baseline • Improvement in FACIT-Fatigue score at Visits 7 and 11 (Day 29 and 57) and the Follow-up Visit compared to baseline • Change in SPPB Score at Visits 7, 11, and 15 (Day 29, 57, and 85), and Follow-up Visit compared to baseline • Change in 6MWT Distance at Visits 7, 11, and 15 (Days 29, 57, and 85) and the Follow-up Visit compared to baseline • Change in SF-36 at Visits 7, 11, and 15 (Days 29, 57, and 85) and the Follow-up Visit compared to baseline • Evaluate the starting dose of BGE-117 in the treatment of UAA for subjects with eGFR ≥60 mL/min/1.73 m^2 and subjects with eGFR ≥30 and <60 mL/min/1.73 m^2
Change in Hb is the primary endpoint and is a direct assessment of the disease of unexplained anemia in aging patients. Changes in FACIT-Fatigue is the key secondary endpoint. Analysis of both of these endpoints is an ANCOVA with baseline covariates. Testing for FACIT-Fatigue is done only after achieving statistical significance for the change in Hb.

[4] = system: HIF prolyl hydroxylase (PHD) 1/2/3; settings: cited from earlier work
[5] = system: patients with chronic kidney disease and normal healthy human volunteers; settings: patients with chronic kidney disease and normal healthy human volunteers (Shinfuku et al. 2018); cited from earlier work
5/6 nephrectomized rats = 5/6 nephrectomized rats (Kato et al. 2019); cited from earlier work

O=C(O)CNC(=O)C1=C(O)CCN(Cc2ccc(Oc3ccc(Cl)cc3)nc2)C1=O [BGE-117, N-[(1{[6-(4-chlorophenoxy)-3-pyridinyl]methyl}-4-hydroxy-2-oxo-1,2,5,6-tetrahydro-3-pyridinyl)carbonyl]glycine]
Voluntary running wheel activity (median daily wheel rotations) vs age-matched controls [1]: statistically significant (p<0.001) increase in voluntary activity; also recorded: significantly increased activity
Hemoglobin concentration vs vehicle control (FIG. 4B) (aged C57BL/6 mice; 23-month old mice): significant increase of hemoglobin levels
Hemoglobin concentration vs vehicle control (FIG. 4B) (aged C57BL/6 mice; 27-month old mice): significant increase of hemoglobin levels
Hemoglobin levels in aged mice, Mean (aged C57BL/6 mice; Week 0 (before treatment), BGE-117 group): 10.98 g/dL
Hemoglobin levels in aged mice, Mean (aged C57BL/6 mice; Week 2, 0.3 mg/dose PO once daily): 19 g/dL
Hb levels of Test Groups vs Control Groups administered vehicle alone ([2]; 23-month old and 27-month old Test Groups): significantly increased Hb levels
Hemoglobin levels before vs after treatment (FIG. 9B) ([2]; 23-month-old mice with elevated TNFα, after two weeks): significant increases in hemoglobin levels
Hemoglobin levels before vs after treatment (FIG. 10B) ([2]; 23 month old mice with elevated IL-6, after two weeks): Highly significant improvements in hemoglobin levels
Hemoglobin levels before vs after treatment (FIG. 12B) ([2]; 27-month old mice with elevated IL-6, after two weeks): Significant improvements in hemoglobin levels
Hemoglobin levels before vs after treatment (FIG. 11B) ([2]; 27-month-old mice with elevated TNFα, after two weeks): Significant improvements in hemoglobin levels
Activity levels and sleep quality compared to baseline [3]: Improve activity levels and sleep quality
Fatigue (FACIT-Fatigue Score) compared to baseline [3]: Reduce fatigue
Hemoglobin levels compared to baseline [3]: Increase hemoglobin levels
Oxygen delivery, mobility, QOL, and energy levels [3]: Improve oxygen delivery, mobility, QOL, and energy levels
Physical activity (SPPB scores, 6MWT, grip strength test) compared to baseline [3]: Improve physical activity
HIF prolyl hydroxylase inhibition, type [4]: competitive HIF prolyl hydroxylase (PHD) 1/2/3 pan-inhibitor
EPO production [5]: increase EPO production
Hemoglobin levels (5/6 nephrectomized rats): increase hemoglobin levels
